The values below come from ChEMBL document CHEMBL5579877, “Design and Evaluation of 3-Phenyloxetane Derivative Agonists of the Glucagon-Like Peptide-1 Receptor” (J Med Chem, 2024).

Data set [1] in a line: AUC in rat at 2 mg/kg, iv by LC-MS/MS analysis. In kind it is ADME, organism-based. The conditions noted are these: in vivo.
The nature of data set [2]: Half-life in ICR mouse at 5 mg/kg, po by LC-MS/MS analysis. Format: ADME, organism-based. The conditions noted are these: in vivo.
Data set [3] can be described thus: AUC in rat at 5 mg/kg, po by LC-MS/MS analysis. In kind it is ADME, organism-based. The conditions noted are these: in vivo.
A further data set deals with Mus musculus. The data set is described as follows: Reduction in blood glucose level in human GLP-1R knock-in mouse at 1 mg/kg, po pretreated for 1 to 4 hrs followed by glucose addition and measured upto 120 mins by glucose meter. In kind it is functional, organism-based. The conditions noted are these: time 180-360 min.
The target in another data set is T1, Cytochrome P450 2B6 (Homo sapiens, UniProt P20813).
T1 sequence (P20813 whole entry): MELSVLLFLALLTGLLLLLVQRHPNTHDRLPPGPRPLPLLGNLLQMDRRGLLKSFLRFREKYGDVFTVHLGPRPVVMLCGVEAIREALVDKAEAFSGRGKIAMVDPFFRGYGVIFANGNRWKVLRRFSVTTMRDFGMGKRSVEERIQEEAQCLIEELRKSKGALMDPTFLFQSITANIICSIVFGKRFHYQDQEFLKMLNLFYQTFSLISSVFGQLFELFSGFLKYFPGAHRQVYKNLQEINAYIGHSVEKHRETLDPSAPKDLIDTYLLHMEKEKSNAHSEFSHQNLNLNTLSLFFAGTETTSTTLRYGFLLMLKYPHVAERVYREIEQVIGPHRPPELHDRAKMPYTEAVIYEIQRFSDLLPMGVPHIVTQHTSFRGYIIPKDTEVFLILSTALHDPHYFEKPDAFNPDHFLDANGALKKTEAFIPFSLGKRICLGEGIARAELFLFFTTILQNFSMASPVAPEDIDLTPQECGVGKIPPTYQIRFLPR
The data set is described as follows: Inhibition of CYP2B6 in human liver microsomes using bupropion as substrate preincubated for 5 mins followed by NADPH addition and measured after 10 mins by LC-MS/MS analysis. In kind it is ADME, Microsome.

Data set [4] in a line: Cmax in rat at 5 mg/kg, po by LC-MS/MS analysis. In kind it is ADME, organism-based. The conditions noted are these: in vivo.
A short description of data set [5]: AUC in ICR mouse at 2 mg/kg, iv by LC-MS/MS analysis. In kind it is ADME, organism-based. The conditions noted are these: in vivo.
The nature of data set [6]: Cmax in ICR mouse at 5 mg/kg, po by LC-MS/MS analysis. Format: ADME, organism-based. The conditions noted are these: in vivo.
Data set [7] can be described thus: Half-life in ICR mouse at 2 mg/kg, iv by LC-MS/MS analysis. Format: ADME, organism-based. The conditions noted are these: in vivo.
In a further data set the target is T2, Cytochrome P450 2C8 (Homo sapiens, UniProt P10632).
T2 sequence (P10632 whole entry): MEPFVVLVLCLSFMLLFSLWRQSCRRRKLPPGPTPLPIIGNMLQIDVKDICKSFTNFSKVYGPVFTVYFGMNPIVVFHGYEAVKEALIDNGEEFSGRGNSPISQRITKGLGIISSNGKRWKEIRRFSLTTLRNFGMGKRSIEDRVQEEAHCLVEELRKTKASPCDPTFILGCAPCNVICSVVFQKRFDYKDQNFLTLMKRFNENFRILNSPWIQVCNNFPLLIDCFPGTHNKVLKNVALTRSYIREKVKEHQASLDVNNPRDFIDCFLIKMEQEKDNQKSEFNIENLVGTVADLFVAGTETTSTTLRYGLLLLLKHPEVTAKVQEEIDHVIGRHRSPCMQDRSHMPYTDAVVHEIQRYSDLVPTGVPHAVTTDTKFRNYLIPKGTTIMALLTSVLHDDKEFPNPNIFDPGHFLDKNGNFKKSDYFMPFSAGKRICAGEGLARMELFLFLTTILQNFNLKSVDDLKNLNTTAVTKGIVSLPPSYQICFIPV
The data set is described as follows: Inhibition of CYP2C8 in human liver microsomes using paclitaxel as substrate preincubated for 5 mins followed by NADPH addition and measured after 20 mins by LC-MS/MS analysis. Format: ADME, Microsome. (In general: Liver microsomes are a subcellular fraction often used to study metabolism.)

The next data set deals with Cytochrome P450 2D6 (Homo sapiens, UniProt P10635). The data set is described as follows: Inhibition of CYP2D6 in human liver microsomes using dextromethorphan as substrate preincubated for 5 mins followed by NADPH addition and measured after 20 mins by LC-MS/MS analysis. Format: ADME, Microsome.
For a further data set, the target named is Cytochrome P450 3A4 (Homo sapiens, UniProt P08684). Description: Inhibition of CYP3A4 in human liver microsomes using midazolam as substrate preincubated for 5 mins followed by NADPH addition and measured after 5 mins by LC-MS/MS analysis. In kind it is ADME, Microsome.
A short description of data set [8]: Oral clearance in rat at 5 mg/kg, po by LC-MS/MS analysis. In kind it is ADME, organism-based. The conditions noted are these: in vivo.
Data set [9] in a line: Cmax in cynomolgus monkey at 2 mg/kg, iv. In kind it is ADME, organism-based, Macaca fascicularis. The conditions noted are these: in vivo.
Data set [10] can be described thus: Apparent volume of distribution in ICR mouse at 2 mg/kg, iv by LC-MS/MS analysis. Format: ADME, organism-based. The conditions noted are these: in vivo, read-out: Vz.
Data set [11] in a line: Metabolic stability in human liver microsomes assessed as half life at […] incubated upto 45 mins in presence of NADPH by LC-MS/MS analysis. In kind it is ADME, Microsome.
The next data set concerns the target Cytochrome P450 2C9 (Homo sapiens, UniProt P11712). Description: Inhibition of CYP2C9 in human liver microsomes using diclofenac as substrate preincubated for 5 mins followed by NADPH addition and measured after 10 mins by LC-MS/MS analysis. In kind it is ADME, Microsome.
Data set [12] is described as follows: AUC in ICR mouse at 5 mg/kg, po by LC-MS/MS analysis. In kind it is ADME, organism-based. The conditions noted are these: in vivo.
Data set [13] is described as follows: Half-life in rat at 2 mg/kg, iv by LC-MS/MS analysis. In kind it is ADME, organism-based. The conditions noted are these: in vivo.
Data set [14] can be described thus: Permeability across apical to basolateral in human Caco-2 cells at 10 uM incubated for 120 mins by LC-MS/MS analysis. Format: ADME, cell-based. The conditions noted are these: read-out: permeability. For orientation: Caco-2 cells form a polarised layer with tight junctions and transporters.
Another data set addresses T3, Cytochrome P450 1A2 (Homo sapiens, UniProt P05177).
T3 sequence (P05177 whole entry): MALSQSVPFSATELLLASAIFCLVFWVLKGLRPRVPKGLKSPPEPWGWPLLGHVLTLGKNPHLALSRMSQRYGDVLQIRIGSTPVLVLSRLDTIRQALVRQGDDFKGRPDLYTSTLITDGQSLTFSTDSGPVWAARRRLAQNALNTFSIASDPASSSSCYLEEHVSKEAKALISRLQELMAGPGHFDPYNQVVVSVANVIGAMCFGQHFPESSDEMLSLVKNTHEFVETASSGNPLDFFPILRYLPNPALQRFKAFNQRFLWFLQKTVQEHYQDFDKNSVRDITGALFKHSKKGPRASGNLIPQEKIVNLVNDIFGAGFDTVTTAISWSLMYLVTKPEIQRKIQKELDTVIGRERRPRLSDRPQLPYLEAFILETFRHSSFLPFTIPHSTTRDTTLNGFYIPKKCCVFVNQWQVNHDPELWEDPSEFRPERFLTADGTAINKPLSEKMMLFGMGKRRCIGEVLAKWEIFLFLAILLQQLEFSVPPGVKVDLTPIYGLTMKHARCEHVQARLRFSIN
Description: Inhibition of CYP1A2 in human liver microsomes using phenacetin as substrate preincubated for 5 mins followed by NADPH addition and measured after 10 mins by LC-MS/MS analysis. Format: ADME, Microsome.

Data set [15] can be described thus: Apparent volume of distribution in rat at 2 mg/kg, iv by LC-MS/MS analysis. Format: ADME, organism-based. The conditions noted are these: in vivo, read-out: Vz.
The nature of data set [16]: Oral bioavailability in cynomolgus monkey at 20 mg/kg. Format: ADME, organism-based, Macaca fascicularis. The conditions noted are these: in vivo.
Data set [17] is described as follows: Oral bioavailability in rat at 5 mg/kg by LC-MS/MS analysis. The conditions noted are these: in vivo. Format: ADME, organism-based.

Broadly, the AUC is concentration integrated over time. In general, half-life refers to how long it takes for the measured level to halve. The term IC50 denotes the concentration at which inhibition is half-maximal. Broadly, the Cmax is the maximum level reached in the sampled fluid or tissue. The term CL/F denotes clearance divided by bioavailability, as obtained after extravascular dosing. The term bioavailability denotes dose-corrected exposure relative to a reference, in per cent.

The source made the active and inactive calls. The rule behind the calls is not given here.

Chain of Cytochrome P450 2C9 (P11712 whole entry): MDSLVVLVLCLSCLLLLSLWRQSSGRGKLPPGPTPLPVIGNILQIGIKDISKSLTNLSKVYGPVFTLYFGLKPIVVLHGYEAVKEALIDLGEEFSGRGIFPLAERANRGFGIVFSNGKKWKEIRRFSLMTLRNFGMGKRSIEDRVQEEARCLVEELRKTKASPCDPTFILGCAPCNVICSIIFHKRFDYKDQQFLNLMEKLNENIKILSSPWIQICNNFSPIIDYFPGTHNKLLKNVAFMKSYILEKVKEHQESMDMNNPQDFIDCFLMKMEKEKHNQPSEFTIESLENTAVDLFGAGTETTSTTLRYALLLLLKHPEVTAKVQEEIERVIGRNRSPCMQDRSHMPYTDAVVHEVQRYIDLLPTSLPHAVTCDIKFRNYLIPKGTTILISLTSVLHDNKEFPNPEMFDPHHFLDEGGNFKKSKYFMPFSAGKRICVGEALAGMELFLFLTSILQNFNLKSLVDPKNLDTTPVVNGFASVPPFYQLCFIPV
Chain of Cytochrome P450 3A4 (P08684 whole entry): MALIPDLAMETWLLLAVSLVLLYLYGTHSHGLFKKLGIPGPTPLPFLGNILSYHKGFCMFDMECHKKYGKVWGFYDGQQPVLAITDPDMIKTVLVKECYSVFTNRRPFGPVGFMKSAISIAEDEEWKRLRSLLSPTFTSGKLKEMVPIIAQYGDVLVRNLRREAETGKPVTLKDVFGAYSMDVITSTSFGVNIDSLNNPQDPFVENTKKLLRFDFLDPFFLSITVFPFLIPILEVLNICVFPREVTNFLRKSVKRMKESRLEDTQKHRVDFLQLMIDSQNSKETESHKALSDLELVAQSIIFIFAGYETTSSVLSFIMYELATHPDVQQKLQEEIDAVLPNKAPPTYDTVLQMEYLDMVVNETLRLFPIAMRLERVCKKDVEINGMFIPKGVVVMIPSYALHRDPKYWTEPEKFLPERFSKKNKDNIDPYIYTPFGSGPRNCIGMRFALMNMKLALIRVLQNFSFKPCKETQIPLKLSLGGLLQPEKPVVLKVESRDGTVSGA
Chain of Cytochrome P450 2D6 (P10635 whole entry): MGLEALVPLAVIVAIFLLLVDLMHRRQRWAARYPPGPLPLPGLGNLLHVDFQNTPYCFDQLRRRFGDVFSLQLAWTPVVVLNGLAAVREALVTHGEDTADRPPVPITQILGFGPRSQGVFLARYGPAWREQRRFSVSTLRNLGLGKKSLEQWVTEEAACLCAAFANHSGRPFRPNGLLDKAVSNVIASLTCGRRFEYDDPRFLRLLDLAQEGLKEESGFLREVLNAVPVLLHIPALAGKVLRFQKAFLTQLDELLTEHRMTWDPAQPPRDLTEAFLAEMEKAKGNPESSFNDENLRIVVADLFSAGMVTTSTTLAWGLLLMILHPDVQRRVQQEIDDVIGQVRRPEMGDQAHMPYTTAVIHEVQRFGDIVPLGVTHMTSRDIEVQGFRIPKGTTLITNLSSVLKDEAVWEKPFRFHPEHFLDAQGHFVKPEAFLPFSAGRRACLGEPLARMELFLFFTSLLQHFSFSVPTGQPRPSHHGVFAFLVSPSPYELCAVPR

For the molecule `O=C(O)c1ccc2nc(CN3CCC(c4cccc(OCc5ccc(C6COC6)cc5F)n4)CC3)n(C[C@@H]3CCO3)c2c1`, the exposure (AUC) in [1] was found to be 0.53 µg·h/mL; in data set [3], 0.18 µg·h/mL; in data set [5] it was 1.67 µg·h/mL; in data set [12] it was 3 µg·h/mL. Besides, the half-life in data set [2] was 3.86 h; in [7], 7.04 h; in data set [11], 2.17 h; in data set [13], 0.21 h. The outcome in the data set on Mus musculus was Active. Also, the half-inhibitory concentration (IC50) is over 10 µM against Cytochrome P450 2B6; 0.22 µM against Cytochrome P450 2C8; over 10 µM at Cytochrome P450 2D6; over 10 µM at Cytochrome P450 3A4; over 10 µM against Cytochrome P450 2C9; over 10 µM against Cytochrome P450 1A2. Moreover, the maximum concentration (Cmax) in data set [4] was 0.19 µg/mL; in data set [6], 2.09 µg/mL; in [9] it was 0.207 µM. In addition, the CL/F in data set [8] was 3.17 L/h/kg. For the same molecule, the Vd came out at 12.2 L/kg in data set [10] and 1.37 L/kg in data set [15]. The Papp A→B at 2 h, 10 µM in [14] was found to be 31.4 nm/s. The bioavailability in data set [16] is 32.8%; in [17], 12.8%.
For the molecule `N#Cc1ccc(COc2cccc(C3CCN(Cc4nc5ccc(C(=O)O)cc5n4C[C@@H]4CCO4)CC3)n2)c(F)c1` [DANUGLIPRON], the area under the curve (AUC) in data set [1] turned out to be 0.52 µg·h/mL; in [3] it was 0.17 µg·h/mL; in [5] it was 1.67 µg·h/mL; in data set [12] it was 2.28 µg·h/mL. Moreover, the half-life is 1.62 h in [2], 2.46 h in data set [7], 1.87 h in data set [11] and 0.32 h in data set [13]. Moreover, in the data set with Mus musculus, the outcome was Active. Moreover, the IC50 against Cytochrome P450 2B6 was over 10 µM; at Cytochrome P450 2C8 it was 1.25 µM; on Cytochrome P450 2D6, over 10 µM; on Cytochrome P450 3A4 it was over 10 µM; against Cytochrome P450 2C9, over 10 µM; on Cytochrome P450 1A2, over 10 µM. In addition, the maximum concentration (Cmax) in [4] came out at 0.11 µg/mL; in data set [6], 2.84 µg/mL; in [9], 0.67 µM. For the same molecule, in data set [8], the CL/F was 33.2 L/h/kg. The Vd in data set [10] was 4.26 L/kg; in [15], 1.98 L/kg. Moreover, the Papp A→B at 2 h, 10 µM in data set [14] was found to be 39.3 nm/s. For the same molecule, the figures for the bioavailability in data set [16] and in data set [17] were 3.41% and 10.2%, respectively.
